Test results published in paper PMC10850954, “HDAC6/aggresome processing pathway importance for inflammasome formation is context-dependent” (The Journal of Biological Chemistry, 2024).

Target: T1, HDAC6 (Homo sapiens, UniProt Q9UBN7)
T1 sequence (Q9UBN7 1-1215): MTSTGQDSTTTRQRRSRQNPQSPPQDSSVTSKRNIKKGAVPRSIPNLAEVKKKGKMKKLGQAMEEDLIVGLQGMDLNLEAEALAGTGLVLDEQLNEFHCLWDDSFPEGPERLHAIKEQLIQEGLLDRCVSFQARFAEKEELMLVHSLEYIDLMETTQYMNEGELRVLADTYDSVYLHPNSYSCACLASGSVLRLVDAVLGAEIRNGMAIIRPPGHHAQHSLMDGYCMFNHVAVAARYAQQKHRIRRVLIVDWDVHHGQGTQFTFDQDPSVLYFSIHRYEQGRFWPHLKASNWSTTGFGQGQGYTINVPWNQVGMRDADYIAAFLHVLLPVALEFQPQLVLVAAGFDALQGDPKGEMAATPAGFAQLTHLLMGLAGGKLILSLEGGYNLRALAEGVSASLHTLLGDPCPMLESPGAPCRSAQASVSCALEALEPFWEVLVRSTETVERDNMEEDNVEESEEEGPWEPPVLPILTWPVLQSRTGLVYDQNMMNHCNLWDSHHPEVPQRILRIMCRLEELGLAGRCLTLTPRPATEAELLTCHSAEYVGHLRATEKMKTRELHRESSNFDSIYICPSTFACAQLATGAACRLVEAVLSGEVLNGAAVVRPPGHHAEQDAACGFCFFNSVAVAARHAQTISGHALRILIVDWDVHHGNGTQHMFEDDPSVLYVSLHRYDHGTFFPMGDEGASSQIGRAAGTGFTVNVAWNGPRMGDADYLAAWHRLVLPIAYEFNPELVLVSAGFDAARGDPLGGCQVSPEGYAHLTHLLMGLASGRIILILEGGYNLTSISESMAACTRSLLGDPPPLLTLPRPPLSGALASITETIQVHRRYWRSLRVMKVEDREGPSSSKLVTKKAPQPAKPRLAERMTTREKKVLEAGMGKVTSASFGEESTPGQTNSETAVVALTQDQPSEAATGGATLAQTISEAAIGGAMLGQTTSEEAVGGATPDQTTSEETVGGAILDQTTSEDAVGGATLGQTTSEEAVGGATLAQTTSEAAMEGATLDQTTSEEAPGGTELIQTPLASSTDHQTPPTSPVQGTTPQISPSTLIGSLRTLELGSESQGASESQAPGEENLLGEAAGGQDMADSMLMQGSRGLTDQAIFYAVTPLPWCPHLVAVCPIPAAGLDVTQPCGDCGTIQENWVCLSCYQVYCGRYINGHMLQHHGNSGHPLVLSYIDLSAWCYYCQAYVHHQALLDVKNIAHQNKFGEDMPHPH
Assay: HDAC6 degradation in pyrin-expressing U937 cells (immunoblot)
Assay type: cell-based
Design: endogenous in cells
Details: 0.1 μM to 10 μM
Description: Cells were treated with the indicated compounds and HDAC6 was detected by immunoblotting with an anti-HDAC6 antibody. Detection of actin was used as a control for protein loading. […] The membrane was blocked with 5% milk-TBS, and then incubated with primary antibodies overnight at 4 °C. The signal was developed with HRP-conjugated secondary antibodies and Amersham ECL Western Blotting Detection Reagent (Cytiva#RPN2106).

With `CN(C(=O)CCCNc1cccc2c1C(=O)N(C1CCC(=O)NC1=O)C2=O)c1ccc(NC(=O)CCCCCCC(=O)NO)cc1` (stereo not shown) [XY-07-35] the HDAC6 degradation was “efficiently degraded”.
